{"source": "patent US20250332139A1", "about": "“PS[…] AND THEIR USE FOR TREATING […] AND NE[…] DISORDERS” (Transcend Therapeutics, Inc., priority 2021, published 2025)", "key": {"[1]": {"molecular_target": "T1, Human serotonin 5HT2B receptor (Homo sapiens, UniProt P41595)", "T1 construct": "host or cells: receptor-expressing membranes", "T1 sequence (P41595 whole entry)": "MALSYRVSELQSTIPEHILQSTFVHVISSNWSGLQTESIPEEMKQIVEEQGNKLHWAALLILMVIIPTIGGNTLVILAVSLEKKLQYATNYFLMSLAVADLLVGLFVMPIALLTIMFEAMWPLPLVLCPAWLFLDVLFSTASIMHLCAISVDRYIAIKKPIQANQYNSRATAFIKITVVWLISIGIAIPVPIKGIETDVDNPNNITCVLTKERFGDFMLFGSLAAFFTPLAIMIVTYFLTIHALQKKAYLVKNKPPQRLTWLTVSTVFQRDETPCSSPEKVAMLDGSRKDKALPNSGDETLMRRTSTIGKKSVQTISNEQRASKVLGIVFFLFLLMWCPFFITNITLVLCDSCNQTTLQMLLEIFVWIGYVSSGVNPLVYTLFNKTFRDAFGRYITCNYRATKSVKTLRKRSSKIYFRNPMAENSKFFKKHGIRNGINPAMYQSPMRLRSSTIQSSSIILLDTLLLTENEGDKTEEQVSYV", "assay": "5HT2B competitive radioligand binding", "conditions": "ratio of Ki values", "experimental": "Human serotonin 5HT2B receptor membrane preparations were divided into aliquots. On the day of the assay, membranes were diluted at 1:200 in incubation buffer. […] To each well was added 150 μL membrane preparation, 50 μL test compound, non-specific compound, or buffer alone, as well as 50 μL radioligand. The plate was incubated at 35° C. for 90 minutes with gentle agitation. […] For each concentration of drug, non-specific binding was subtracted from total binding to give specific binding. […] Ki was subsequently calculated using the ChengPrusoff equation."}, "Sprague Dawley rats [2]": {"test_system": "Sprague Dawley rats", "assay": "Forced Swim Test (FST)", "format": "in vivo, rat", "from_the_text": "The Forced Swim Test (FST) is a classic, and the most used preclinical behavioral assay to screen compounds with antidepressant-like activity and has high predictive and face validity (Porsolt et al. (1977) Nature 266:730; Borsini and Meli (1988) Psychopharmacology 94:147). The premise of the FST is that when rats are placed into a cylinder filled with water, they will initially try to escape, but over time will become immobile. This increased immobility reflects behavioral despair, modeling a depressive-like state.\nForced Swim Test (FST): In the FST trial, rats were placed in a circular plexiglass container filled with water, with no means of escape. Water temperature was maintained at 22-25° C. and changed for every animal. After an acclimation period, rats were timed for inactivity (failure to struggle), activity, swim time and climbing time. Day 1 consisted of a 15 min acclimation trial, and Day 2 (24 h later) consisted of the 5 min test. A time sampling procedure was employed where animals were observed every 5 sec and scored for immobility, swimming, or climbing. Fluoxetine (10 mg/kg, IP, Sigma Aldrich) or 0.9% sterile saline vehicle (vehicle 3X group) were administered 23.5, 5, and 1 h before testing in the FST. […] The experimenter was blinded to treatment.\nForced Swim Test: In the FST trial, rats were placed in a circular plexiglass container filled with water, with no means of escape. Water temperature was maintained at 22-25° C. and changed for every animal. After an acclimation period, rats were timed for inactivity (failure to struggle), activity, swim time and climbing time. Day 1 consisted of a 15 min acclimation trial, and Day 2 (24 h later) consisted of the 5 min test. A time sampling procedure was employed where animals were observed every 5 sec and scored for immobility, swimming, or climbing. Fluoxetine (10 mg/kg, IP, Sigma Aldrich) or 0.9% sterile saline vehicle (vehicle 3X group) were administered 23.5, 5, and 1 h before testing in the FST. 2C-B (2.5, 10, or 20 mg/kg, IP, Cayman Chemical) or 0.9% saline vehicle (vehicle 1X group) were administered 30 min prior to FST testing. The experimenter was blinded to treatment.\nDrug Treatment: Fluoxetine (10 mg/kg, IP, Sigma Aldrich) or 0.9% sterile saline vehicle were administered 23.5, 5, and 1 h before testing in the FST. […] Control animals received fluoxetine alone, methylone alone, or saline vehicle.\nForced Swim Test: In the FST trial, rats were placed in a circular plexiglass container filled with water, with no means of escape. Water temperature was maintained at 22-25° C. and changed for every animal. After an acclimation period, rats were timed for inactivity (failure to struggle), activity, swim time and climbing time. The experimenter and scorer were blind to treatment group. Day 1 consisted of a 15 min acclimation trial, and Day 2 (24 h later) consisted of the 5 min test. A time sampling procedure was employed where animals were observed every 5 sec and scored for immobility, swimming, or climbing.\nThe FST was performed and scored by an experimenter blind to treatment group according to standard protocols and based on a “modified FST” procedure (Slattery and Cryan (2012) Nat Protoc, 7:1009). Briefly, rats were placed in a circular plexiglass container (29.2 cm diameter, 49.5 cm height) filled with water to a depth of 30 cm so rats could not support themselves by touching the bottom of the tank. Water was maintained at 22-25° C. and was changed for every animal. Day 1 (Training) consisted of a 15 min acclimation trial, and Day 2 (Testing, 24 h later) consisted of the 5 min test. A time sampling procedure was employed where animals were observed every 5 seconds for the duration of the test session (60 counts or 5 minutes) and scored for immobility (defined as the failure to struggle), swimming (defined as a circular movement around the tank), or climbing (defined as an upwards escape behavior). […]"}, "C57Bl/6 mice": {"test_system": "C57Bl/6 mice", "assay": "Cisplatin CIPN model, von Frey test", "format": "in vivo, mouse", "experimental": "Cisplatin, a platinum-based chemotherapy agent has been used to reduce pain thresholds in a model of CIPN. Effects of acute (single higher dose) or sub-chronic (7 days repeated lower dose) 2C-B on pain thresholds were investigated in cisplatin-treated animals compared with vehicle or cisplatin-treated controls.\nMethods: Male C57Bl/6 mice aged 12-16 weeks were used. Cisplatin (2.5 mg/kg) or vehicle was administered on days 1-5 and 11-15.\nVehicle, sub-chronic 2C-B (5 mg/kg once daily days 17-23) or acute 2C-B (20 mg/kg once on day 17) was then administered IP (N=16-18/group). VonFrey testing took place on day 17 (30 min post-dose) and days 21 and 24 (pre-dose) to monitor the effects of 2C-B in cisplatin treated animals, compared with animals receiving cisplatin+vehicle or vehicle+vehicle.\nFor von Frey measurements, animals were placed into wire bottom cubicles with opaque Plexiglas walls, allowing access to the underside of their paws. Animals were habituated to this environment for at least 30 minutes before the start of the von Frey filament application. Static allodynia was measured using Semmes-Weinstein von Frey filaments (Stoelting, Wood Dale, IL). Mechanical allodynia was tested by touching the plantar surface of the animals' right and left hind paws with von Frey filaments which deliver a calibrated amount of force (0.07, 0.16, 0.4, 0.6. 1.0, 2.0, 4.0, 6.0 g). […]"}, "experienced drug users": {"test_system": "experienced drug users", "conditions": "cited from earlier work"}, "Sprague Dawley rats [3]": {"test_system": "Sprague Dawley rats", "conditions": "previous literature reports (Hibicke 2020; Yang 2013; Tizabi 2012); cited from earlier work"}, "C57BL/6J mice": {"test_system": "C57BL/6J mice", "assay": "Fear extinction paradigm (PTSD mouse model)", "format": "in vivo", "conditions": "MBDB 5 mg/kg IP, day 2", "from_the_text": "Effective PTSD treatments facilitate the disassociation between a traumatic memory and the patient's fear response, making cues for the traumatic memory evoke less of a fear response. This is modeled in the mouse fear extinction paradigm (see FIG. 9A) which takes place over 3 days. On day 1 (fear conditioning), mice are trained to acquire a “traumatic memory,” namely associating the conditioned stimulus (CS, tone) to the unconditioned stimulus (US, foot shock). On day 2 (extinction training), they are trained to forget the traumatic memory association by presenting the CS 6 times (with no US) in a novel environment. On day 3 (extinction recall), the mice are “asked” if that tone (CS) still elicits a fearful response, as measured by the time spent freezing when the tone is presented. Less time freezing means better extinction recall. Drugs that improve extinction recall reduce freezing time on day 3, and, therefore, show potential as a PTSD treatment.\nMethods: Cued fear conditioning was performed in C57BL/6J mice. On day 1, animals were placed in the chambers and presented with a training session (CS-US pairing). The training consisted of a 2-minute habituation followed by a 30-second, 80 dB tone; during the last 2 seconds of the tone animals received a 1 mA foot shock. This US-CS procedure occurred once for a total of one paired presentation of tone and shock. Freezing behavior (immobility) was recorded in 5-10-see intervals during the session. Percent baseline freezing behavior was determined in the 2-minute habituation period. On day 3, animals were placed in context B, in which tactile and odor cues differed from context A. Following a 2 minute acclimation period animals received 4×30 sec presentations of the CS (tone) in the absence of the US (footshock), with a 45 sec interval between presentations. Freezing was recorded in 5-10-see intervals to measure baseline freezing response to the altered context, and freezing response to each tone cue presentation. […] On day 4 (Post-Extinction Testing in Drug-Free State), animals were placed in Context B. Following a 2 min acclimation period, animals received 4×30 sec extinction tone duration presentations of the CS (tone) in the absence of the US (footshock), with a 45 sec interval between presentations. Freezing was recorded in 5-10-see intervals to measure baseline freezing response to the altered context, and freezing response to each tone cue presentation."}, "[4]": {"test_system": "serotonergic terminals in the cortex and hippocampus", "conditions": "(±)-MBDB.HCl 25 mg/kg IP every 12 hours for 4 days, 2 weeks post-treatment; cited from earlier work"}}, "note": "Read-outs that look alike come from different tables or passages of the source."}
{"smiles": "CC(N)Cc1ccc2c(c1)OCO2", "note": "(centres unmarked) [MDA]", "values": [{"measurement": "times greater affinity for the 5HT2B receptor compared with methylone", "setting": "[1]", "result": 37, "unit": "times"}]}
{"smiles": "COc1cc(CCN)c(OC)cc1Br", "note": "[2C-B, 4-Bromo-2,5-dimethoxyphenethylamine]", "values": [{"measurement": "climbing", "setting": "Sprague Dawley rats [2]; 2C-B high-dose group (20 mg/kg IP)", "result": "significantly decreased"}, {"measurement": "swimming", "setting": "Sprague Dawley rats [2]; 2C-B single dose IP 30 min before test", "result": "significant increase in swimming"}, {"measurement": "effect of repeated doses", "setting": "C57Bl/6 mice; 5 mg/kg 2C-B once daily days 17-23", "result": "sustained beneficial effect"}, {"measurement": "pain thresholds in cisplatin-treated animals", "setting": "C57Bl/6 mice; single dose 5 or 20 mg/kg IP, within 30 min, day 17", "result": "significantly increased"}, {"measurement": "adverse effects", "setting": "experienced drug users; self-administered 2C-B, 10 to 20 mg", "result": "no serious adverse effects"}]}
{"smiles": "CCN(CC)C(=O)[C@@H]1C=C2c3cccc4[nH]cc(c34)C[C@H]2N(C)C1", "note": "[LSD, lysergic acid-N,N-diethylamide]", "values": [{"measurement": "reduction in immobility", "setting": "Sprague Dawley rats [3]", "result": 38, "unit": "%"}]}
{"smiles": "CNCCC(Oc1ccc(C(F)(F)F)cc1)c1ccccc1", "note": "(centres unmarked) [fluoxetine, reference compound]", "values": [{"measurement": "swimming behavior", "setting": "Sprague Dawley rats [2]; Example 8, fluoxetine 10 mg/kg IP x3", "result": "significantly increased swimming behavior"}]}
{"smiles": "CN(C)CCc1c[nH]c2cccc(OP(=O)(O)O)c12", "note": "[psilocybin]", "values": [{"measurement": "reduction in immobility", "setting": "Sprague Dawley rats [3]", "result": 67, "unit": "%"}]}
{"smiles": "CCC(Cc1ccc2c(c1)OCO2)NC", "note": "(centres unmarked) [MBDB, N-methyl-1-(1,3-benzodioxol-5-yl)-2-aminobutane]", "values": [{"measurement": "immobility", "setting": "Sprague Dawley rats [2]; MBDB 5-30 mg/kg IP, 30 min before test", "result": "significantly reduced immobility"}, {"measurement": "extinction acquisition, first trial of extinction training", "setting": "C57BL/6J mice", "result": "improved extinction acquisition"}, {"measurement": "locomotor activity", "setting": "C57BL/6J mice", "result": "small, but significant increase in locomotor activity"}, {"measurement": "serotonergic terminals destroyed in the cortex and hippocampus", "setting": "[4]", "result": "55-60%"}, {"measurement": "adverse effects", "setting": "experienced drug users; self-administered MBDB, 100 to 300 mg", "result": "no serious adverse effects"}]}
